Experiments:
Type in all cases: in vivo
Cyperus iria = test: Preemergence weed control under flooded paddy conditions, CYPIR (Rice Flatsedge); conditions: preemergence, flooded paddy
Sagittaria pygmaea, L. = test: Preemergence weed control under flooded paddy conditions, SAGPY (Arrowhead (Pygmaea)); conditions: preemergence, flooded paddy
[1] = test system: Monochoria vaginalis, Presl.; test: Preemergence weed control under flooded paddy conditions, MOOVA (Monochoria); conditions: preemergence, flooded paddy
[2] = test system: Echinochloa oryzoides (Ard.) Fritsch.; test: Preemergence weed control under flooded paddy conditions, ECHORC (Watergrass (Calif.)); conditions: preemergence, flooded paddy
[3] = test system: Cyperus serotinus, Rottb.; test: Preemergence weed control under flooded paddy conditions, CYPSE (Flatsedge); conditions: preemergence
[4] = Rate 0.0320 kg/ha, rated 3-4 weeks after treatment
[5] = Rate 0.0620 kg/ha, rated 3-4 weeks after treatment
[6] = Rate 0.1250 kg/ha, rated 3-4 weeks after treatment
[7] = Rate 0.2500 kg/ha, rated 3-4 weeks after treatment
[8] = Rate 0.0320 kg/ha, rated three to four weeks after treatment
[9] = Rate 0.0620 kg/ha, rated three to four weeks after treatment
[10] = Rate 0.1250 kg/ha, rated three to four weeks after treatment
[11] = Rate 0.2500 kg/ha, rated three to four weeks after treatment
Also: meaning of each grade not given here.

Row | Structure (SMILES) | herbicidal effect rating, CYPIR (Cyperus iria; [8]) | herbicidal effect rating, CYPIR (Cyperus iria; [9]) | herbicidal effect rating, CYPIR (Cyperus iria; [10]) | herbicidal effect rating, CYPIR (Cyperus iria; [11]) | herbicidal effect rating, SAGPY (Sagittaria pygmaea, L.; [8]) | herbicidal effect rating, SAGPY (Sagittaria pygmaea, L.; [9]) | herbicidal effect rating, SAGPY (Sagittaria pygmaea, L.; [10]) | herbicidal effect rating, SAGPY (Sagittaria pygmaea, L.; [11]) | herbicidal effect rating, MOOVA [1, 8] | herbicidal effect rating, MOOVA [1, 9] | herbicidal effect rating, MOOVA [1, 10] | herbicidal effect rating, MOOVA [1, 11] | herbicidal effect rating, ECHORC [2, 8] | herbicidal effect rating, ECHORC [2, 9] | herbicidal effect rating, ECHORC [2, 10] | herbicidal effect rating, ECHORC [2, 11] | herbicidal effect rating, CYPSE [3, 8] | herbicidal effect rating, CYPSE [3, 9] | herbicidal effect rating, CYPSE [3, 10] | herbicidal effect rating, CYPSE [3, 11] | further results
1 | CC/C=C/CCCCCCCCCCOC(=O)COc1ccc(C)cc1-c1nsc2ccc(-n3c(=O)cc(C(F)(F)F)n(C)c3=O)cc12 [Example 526, Acetic acid, {{2-{5-[3,6-dihydro-3-methyl-2,6-dioxo-4-(trifluoromethyl)-1(2H)-pyrimidinyl]-1,2-benzisothiazol-3-yl}-p-tolyl}oxy}-, 11-tetradecenyl ester, (E)-] | – | – | – | – | – | – | – | – | – | – | – | – | – | – | – | – | – | – | – | – | herbicidal effect rating, CYPIR (Cyperus iria; [4]): 2.0; herbicidal effect rating, CYPIR (Cyperus iria; [5]): 4.0; herbicidal effect rating, CYPIR (Cyperus iria; [6]): 7.0; herbicidal effect rating, CYPIR (Cyperus iria; [7]): 9.0; herbicidal effect rating, SAGPY (Sagittaria pygmaea, L.; [4]): 0.0; herbicidal effect rating, SAGPY (Sagittaria pygmaea, L.; [5]): 0.0; herbicidal effect rating, SAGPY (Sagittaria pygmaea, L.; [6]): 0.0; herbicidal effect rating, SAGPY (Sagittaria pygmaea, L.; [7]): 0.0; herbicidal effect rating, MOOVA [1, 4]: 8.0; herbicidal effect rating, MOOVA [1, 5]: 9.0; herbicidal effect rating, MOOVA [1, 6]: 9.0; herbicidal effect rating, MOOVA [1, 7]: 9.0; herbicidal effect rating, ECHORC [2, 4]: 2.0; herbicidal effect rating, ECHORC [2, 5]: 2.0; herbicidal effect rating, ECHORC [2, 6]: 4.0; herbicidal effect rating, ECHORC [2, 7]: 6.0; herbicidal effect rating, CYPSE [3, 4]: 0.0; herbicidal effect rating, CYPSE [3, 5]: 0.0; herbicidal effect rating, CYPSE [3, 6]: 0.0; herbicidal effect rating, CYPSE [3, 7]: 0.0
2 | Cc1ccc(OCC(=O)OCCCCCO[Si](C)(C)C(C)(C)C)c(-c2nsc3ccc(-n4c(=O)cc(C(F)(F)F)n(C)c4=O)cc23)c1 [Example 534, Acetic acid, {{2-{5-[3,6-dihydro-3-methyl-2,6-dioxo-4-(trifluoromethyl)-1(2H)-pyrimidinyl]-1,2-benzisothiazol-3-yl}-p-tolyl}oxy}-, 5-(tert-butyldimethylsiloxy)pentyl ester] | – | – | – | – | – | – | – | – | – | – | – | – | – | – | – | – | – | – | – | – | herbicidal effect rating, CYPIR (Cyperus iria; [4]): 0.0; herbicidal effect rating, CYPIR (Cyperus iria; [5]): 3.0; herbicidal effect rating, CYPIR (Cyperus iria; [6]): 3.0; herbicidal effect rating, CYPIR (Cyperus iria; [7]): 9.0; herbicidal effect rating, SAGPY (Sagittaria pygmaea, L.; [4]): 0.0; herbicidal effect rating, SAGPY (Sagittaria pygmaea, L.; [5]): 0.0; herbicidal effect rating, SAGPY (Sagittaria pygmaea, L.; [6]): 0.0; herbicidal effect rating, SAGPY (Sagittaria pygmaea, L.; [7]): 0.0; herbicidal effect rating, MOOVA [1, 4]: 4.0; herbicidal effect rating, MOOVA [1, 5]: 9.0; herbicidal effect rating, MOOVA [1, 6]: 9.0; herbicidal effect rating, MOOVA [1, 7]: 9.0; herbicidal effect rating, ECHORC [2, 4]: 3.5; herbicidal effect rating, ECHORC [2, 5]: 4.5; herbicidal effect rating, ECHORC [2, 6]: 9.0; herbicidal effect rating, ECHORC [2, 7]: 9.0; herbicidal effect rating, CYPSE [3, 4]: 0.0; herbicidal effect rating, CYPSE [3, 5]: 0.0; herbicidal effect rating, CYPSE [3, 6]: 0.0; herbicidal effect rating, CYPSE [3, 7]: 0.0
3 | CCS(=O)(=O)NC(=O)C(C)Oc1ccc(C)cc1-c1nsc2ccc(-n3c(=O)cc(C(F)(F)F)n(C)c3=O)cc12 (stereo not drawn) [Example 571, Propionamide, 2-{{2-{5-[3,6-dihydro-3-methyl-2,6-dioxo-4-(trifluoromethyl)-1(2H)-pyrimidinyl]-1,2-benzisothiazol-3-yl}-p-tolyl}oxy}-N-(ethylsulfonyl)] | 0.0 | 3.0 | 3.0 | 9.0 | 0.0 | 0.0 | 0.0 | 0.0 | 0.0 | 6.0 | 7.0 | 9.0 | 0.0 | 2.0 | 3.0 | 6.0 | 0.0 | 0.0 | 0.0 | 0.0 | –
4 | C=CCC(c1nsc2ccc(-n3c(=O)cc(C(F)(F)F)n(C)c3=O)cc12)S(C)(=O)=O (stereo not drawn) [Example 602, 2,4(1H,3H)-Pyrimidinedione, 1-methyl-3-{3-[1-(methylsulfonyl)-3-butenyl]-1,2-benzisothiazol-5-yl}-6-(trifluoromethyl)-] | 3.0 | 3.0 | 5.0 | 5.0 | 0.0 | 0.0 | 0.0 | 3.0 | 7.0 | 7.0 | 8.0 | 9.0 | 0.0 | 5.0 | 9.0 | 9.0 | – | 0.0 | 7.0 | 9.0 | –
5 | C#CCC(c1nsc2ccc(-n3c(=O)cc(C(F)(F)F)n(C)c3=O)cc12)S(C)(=O)=O (stereo not drawn) [Example 603, 2,4(1H,3H)-Pyrimidinedione, 1-methyl-3-{3-[1-(methylsulfonyl)-3-butynyl]-1,2-benzisothiazol-5-yl}-6-(trifluoromethyl)-] | 5.0 | – | 6.0 | 7.0 | 0.0 | 0.0 | 2.0 | 4.0 | 7.0 | 7.0 | 9.0 | 9.0 | 0.0 | 4.0 | 6.0 | 8.0 | 0.0 | – | 8.0 | 9.0 | –
6 | Cn1c(C(F)(F)F)cc(=O)n(-c2ccc3snc(C(Cc4ccccc4)S(C)(=O)=O)c3c2)c1=O (stereo not drawn) [Example 604, 2,4(1H,3H)-Pyrimidinedione, 1-methyl-3-{3-[alpha(methylsulfonyl)phenethyl]-1,2-benzisothiazol-5-yl}-6-(trifluoromethyl)-] | 0.0 | 3.0 | 4.0 | 6.0 | 0.0 | 0.0 | 0.0 | 0.0 | 5.0 | 6.0 | 7.0 | 8.0 | 7.0 | 7.0 | 7.0 | 9.0 | 0.0 | 0.0 | 0.0 | 0.0 | –
7 | Cn1c(C(F)(F)F)cc(=O)n(-c2ccc3snc(C(C#N)=Cc4ccccc4F)c3c2)c1=O [Example 605, 1,2-Benzisothiazole-3-acetonitrile, 5-[3,6-dihydro-3-methyl-2,6-dioxo-4-(trifluoromethyl)-1(2H)-pyrimidinyl]-alpha-(o-fluorobenzylidene)-] | 1.0 | 3.0 | 7.0 | 7.0 | 4.0 | 4.0 | 5.0 | 7.0 | 9.0 | 9.0 | 9.0 | 9.0 | 4.0 | 4.0 | 7.0 | 7.0 | 0.0 | 0.0 | 0.0 | 0.0 | –
8 | Cn1c(C(F)(F)F)cc(=O)n(-c2ccc3snc(C(C#N)=Cc4ccccc4C#N)c3c2)c1=O [Example 606, 1,2-Benzisothiazole-3-acetonitrile, alpha-(o-cyanobenzylidene)-5-[3,6-dihydro-3-methyl-2,6-dioxo-4-(trifluoromethyl)-1(2H)-pyrimidinyl]-, (E)- and (Z)-] | 4.0 | 6.0 | 6.0 | 9.0 | 0.0 | – | 3.0 | 4.0 | 6.0 | 7.0 | 7.0 | 9.0 | 5.0 | 5.0 | 5.0 | 6.0 | 0.0 | 2.0 | 2.0 | 2.0 | –
